Laboratory results published in publication PMC7151638, “Investigation of a thermostable multi-domain xylanase-glucuronoyl esterase enzyme from Caldicellulosiruptor kristjanssonii incorporating multiple carbohydrate-binding modules” (Biotechnology for Biofuels, 2020).

Target: T1, CkGE15A (Caldicellulosiruptor acetigenus, UniProt E4S6E9)
T1 construct: gene Calkr_2245; CE15 glucuronoyl esterase domain only, cut from the 191-kDa multidomain protein (CBM22-CBM22-GH10-CBM9-CBM9-CBM9-CE15-cadherin-SLH-SLH); modified pET-28a with TEV site, E. coli BL21, Ni IMAC
T1 sequence (E4S6E9 1270-1690 limits assumed): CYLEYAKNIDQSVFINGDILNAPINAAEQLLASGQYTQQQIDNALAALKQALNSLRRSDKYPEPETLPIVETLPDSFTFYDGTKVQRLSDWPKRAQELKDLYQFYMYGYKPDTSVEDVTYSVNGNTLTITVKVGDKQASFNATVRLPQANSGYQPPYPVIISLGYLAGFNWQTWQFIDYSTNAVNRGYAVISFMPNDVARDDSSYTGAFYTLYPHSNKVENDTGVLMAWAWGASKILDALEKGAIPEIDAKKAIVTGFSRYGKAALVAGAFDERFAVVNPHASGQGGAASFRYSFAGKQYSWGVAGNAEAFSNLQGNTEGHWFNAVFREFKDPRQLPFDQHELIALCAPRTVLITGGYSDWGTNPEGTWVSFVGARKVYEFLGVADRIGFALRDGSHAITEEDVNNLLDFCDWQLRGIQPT
Test: continuous coupled assay of uronic acid release (K-URONIC kit, NADH at […] nm)
Type: biochemical
Settings: 22 °C; pH 7.5; printed as 'Cannot be saturated up to 40 mM'

Km [mM]	Structure (SMILES)
> 40	C=CCOC(=O)[C@H]1OC(O)[C@H](O)[C@@H](O)[C@@H]1O (stereo partly drawn) [AllGlcA, Allyl-D-glucuronoate]
> 40	COC(=O)[C@H]1OC(O)[C@H](O)[C@@H](O)[C@@H]1O (stereo partly drawn) [MeGlcA, Methyl-D-glucuronoate]
